Type in all cases: cell-based, murine
One assay has as its system COX-2. The assay is described as follows: COX-2 assay (cell membrane damage by RDT). Particulars: CT26, 10 μM 4 h; for COX-2 mean fluorescence intensities (flow cytometry): with X-ray irradiation. As for the experimental part: Thus, the cell membrane damage caused by RDT upon X-ray irradiation was investigated by COX-2 assay (BD Bioscience, Franklin Lakes, New Jersey, United States of America) in CT26 cells. Cells were seeded on cover slides in 6-well plates and cultured for 12 h then incubated with Hf12-DBP, Hf12-DBP-Pt, H2DBP-Pt or PBS at a Hf concentration of 10 μM or ligand with concentration of 10 μM for 4 h followed by X-ray irradiation (250 kVp, 15 mA, mm Cu filter) at 0 and 2 Gy dose. Cells were fixed with 4% paraformaldehyde immediately after X-ray or light irradiation. Biotin-conjugated anti-COX-2 antibody with concentration of 10 μg/mL were incubated with cells at 4° C. overnight then followed by incubation with Cy3-conjugated streptavidin. The nuclei were stained with DAPI. […] The cells were imaged with CLSM and quantified by flow cytometry.
To further study the stronger RDT effect from the Hf12-DBP-Pt treated group, flow cytometry was performed to quantify the difference of COX-2 upregulation of cells treated with Hf12-DBP-Pt, Hf12-DBP, H2DBP-Pt or H2DBP. The mean fluorescence intensities were 7441, 1804, 821, and 225 for the t cells treated with Hf12-DBP-Pt, Hf12-DBP, H2DBP-Pt and H2DBP with X-ray irradiation, respectively.

The subject of assay [1] is CT26 cells. The assay is described as follows: Annexin V/dead cell apoptosis kit, flow cytometry, CT26. As to conditions: 48 h. As to the method: (§1) The in vitro anticancer efficacy of Hf12-DBP and Hf12-DBP-Pt were further evaluated on CT26 and MC38 cells. Cells were cultured in a 6-well plate overnight and incubated with particles at a Hf concentration of 20 μM for 4 h followed by irradiation with 0 or 2 Gy X-ray (250 kVp, 15 mA, 1 mm Cu filter). 48 h later, the cells were stained according to the AlexaFluor 488 Annexin V/dead cell apoptosis kit (Life Technologies, Carlsbad, California United States of America) and quantified by flow cytometry.
The in vitro anticancer efficacy of POM, Hf6-QPDC-Ir, Hf12-QPDC-Ir and POM@Hf12-QPDC-Ir were evaluated on CT26 and MC38 cells. Cells were cultured in a 6-well plate overnight and incubated with particles at a Hf concentration of 20 μM or equivalent W concentration for 4 h followed by irradiation with 0 or 2 Gy X-ray (250 kVp, 15 mA, 1 mm Cu filter). 48 h later, the cells were stained according to the AlexaFluor 488 Annexin V/dead cell apoptosis kit (Life Technologies, Carlsbad, California, United States of America) and quantified by flow cytometry.
Background: A flow cytometer gives signals particle by particle.

Another assay has as its system MC38 cells. Description: Annexin V/dead cell apoptosis kit, flow cytometry, MC38. As to conditions: 48 h. As to the method:
as §1
The in vitro anticancer efficacy of POM, Hf6-QPDC-Ir, Hf12-QPDC-Ir and POM@Hf12-QPDC-Ir were evaluated on CT26 and MC38 cells. Cells were cultured in a 6-well plate overnight and incubated with particles at a Hf concentration of 20 μM or equivalent W concentration for 4 h followed by irradiation with 0 or 2 Gy X-ray (250 kVp, 15 mA, 1 mm Cu filter). 48 h later, the cells were stained according to the AlexaFluor 488 Annexin V/dead cell apoptosis kit (Life Technologies, Carlsbad, California, United States of America) and quantified by flow cytometry. […]

The subject of assay [2] is CT26 cells. Description: Intracellular singlet oxygen generation (SOSG, CLSM), Example 1. As to conditions: 20 μM based on Ir, Ru or BPY, 8 h, X-ray 2 Gy. As for the experimental part: ^1O2 generation in live cells was detected by Singlet Oxygen Sensor Green (SOSG, Life Technology, USA). CT26 cells were seeded in a 3.5-cm petri dish and cultured for 12 h. The culture medium was then replaced with fresh medium containing 1 μM SOSG to preload the cells with SOSG. After incubating for 30 min, the cells were washed by PBS three times to remove excess SOSG. The cells were incubated in PBS, with Hf-MOLs or ligands at a ligand concentration of 20 μM for 8 h, then washed with PBS three times to remove excess MOLs or ligands. X-ray irradiation was applied to cells at a dose of 2 Gy (250 kVp, 15 mA, 1-mm Cu filter). Confocal laser scanning microscopy (CLSM; FV1000 Laser Scanning Confocal Microscope, Olympus Corporation, Tokyo, Japan) was used to visualize the ^1O2 generated in the live cells by detecting the green fluorescence inside the cells.
The mechanism of X-ray induced cytotoxicity on CT26 cells was explored. ^1O2 generation in live cells was examined by Singlet Oxygen Sensor Green (SOSG) and detected by confocal laser scanning microscopy (CLSM). After preloading cells with SOSG and incubating them with PBS, Hf-MOLs, or H3BPY ligand for 8 h at a concentration of 20 μM based on Ir, Ru, or BPY, respectively, they were irradiated with X-rays at a dose of 2 Gy, immediately followed by CLSM imaging.

Where [3] appears, read: Table 8, 0 Gy (dark), Hf 20 μM 4 h.
Setting [4] is: Table 8, 2 Gy X-ray, Hf 20 μM 4 h.
Setting [5] is: Table 9, 0 Gy (dark), Hf 20 μM 4 h.
[6] abbreviates: Table 9, 2 Gy X-ray, Hf 20 μM 4 h.
[7] abbreviates: Table 10, 0 Gy (dark), Hf 20 μM or equivalent W 4 h.
[8] abbreviates: Table 10, 2 Gy X-ray, Hf 20 μM or equivalent W 4 h.
[9] abbreviates: Table 11, 0 Gy (dark), Hf 20 μM or equivalent W 4 h.
[10] abbreviates: Table 11, 2 Gy X-ray, Hf 20 μM or equivalent W 4 h.

As to `O=C(O)c1ccc(-c2c3nc(cc4ccc([nH]4)c(-c4ccc(C(=O)O)cc4)c4nc(cc5ccc2[nH]5)C=C4)C=C3)cc1` [H2DBP, 5,15-di(p-benzoato)porphyrin], in the assay on COX-2, the “COX-2 mean fluorescence intensities (flow cytometry)” value worked out at 225.
With `O=C(O)c1ccc(-c2c3nc(cc4ccc([n-]4)c(-c4ccc(C(=O)O)cc4)c4nc(cc5ccc2[n-]5)C=C4)C=C3)cc1.[Pt+2]` [H2DBP-Pt, platinum-complexed 5, 15-di(p-benzoato)porphyrin], the Early apoptosis with CT26 cells [1] (setting [3]) stood at 0.66%; with CT26 cells [1] (setting [4]), 0.73%; in the assay on MC38 cells (setting [5]) it was 3.99%; in the assay with MC38 cells (setting [6]), 15.9%. Besides, the Healthy cells in the assay on CT26 cells [1] (setting [3]) stood at 88.2%; in the assay on CT26 cells [1] (setting [4]) it was 69.3%; with MC38 cells (setting [5]), 93.9%; with MC38 cells (setting [6]), 78.2%. Further, the Late apoptosis with CT26 cells [1] (setting [3]) is given as 4.86%; in the assay on CT26 cells [1] (setting [4]), 8.45%; in the assay with MC38 cells (setting [5]), 1.90%; with MC38 cells (setting [6]), 5.31%. Moreover, the Necrosis was 6.26% in the assay on CT26 cells [1] (setting [3]), 21.5% in the assay with CT26 cells [1] (setting [4]), 3.18% in the assay on MC38 cells (setting [5]) and 0.55% in the assay on MC38 cells (setting [6]). The “COX-2 mean fluorescence intensities (flow cytometry)” value in the assay with COX-2 is 821. In addition, the “COX-2 upregulation by CLSM” value with COX-2 (with X-ray irradiation (2 Gy)) and in the assay on COX-2 (without X-ray irradiation) was “No fluorescence signal” in each case.
On to `O=C(O)c1ccc(-c2cc(-c3ccc(C(=O)O)cc3)nc(-c3cc(C(=O)O)ccn3)c2)cc1` [H3BPY, 4′,6′-dibenzoato-[2,2′-bipyridine]-4-carboxylic acid], for which the “SOSG fluorescence (^1O2 in live cells)” value with CT26 cells [2] is listed as “no SOSG signal”.
With [P2W18O62]^6− [POM, reference compound], in the assay on CT26 cells [1] (setting [7]), the Early apoptosis was 0.051%, the Healthy cells was 99.7%, the Late apoptosis came out at 0.0057% and the Necrosis was determined as 0.21%. In the assay with CT26 cells [1] (setting [8]), the Early apoptosis came to 5.71%, the Healthy cells is 83.1%, the Late apoptosis amounted to 8.14% and the Necrosis was 3.05%. In addition, in the assay on MC38 cells (setting [9]), the Early apoptosis was 0.44%, the Healthy cells stood at 97.3%, the Late apoptosis is reported as 0.86% and the Necrosis was determined as 1.53%. Besides, in the assay on MC38 cells (setting [10]), the Early apoptosis worked out at 2.35%, the Healthy cells is 70.9%, the Late apoptosis is 14.0% and the Necrosis was determined as 12.7%.

The values above are taken from US11826426B2, “Nanoscale metal-organic layers and metal-organic nanoplates for x-ray induced photodynamic therapy, radiotherapy, radiodynamic therapy, chemotherapy, immunotherapy, and any combination thereof” (priority 2017, dated 2023).
